In patent US9216968B2, “Heterocyclic derivative and pharmaceutical drug” (NIPPON SHINYAKU CO., LTD., priority 2011, dated 2015):
pIC50: −log10 of the molar value. Counter-ions that a name gives are not always drawn.

Key:
human mPGES-1 = human mPGES-1 (Homo sapiens (Human), UniProt O14684); test: mPGES-1 inhibiting activity (microsome fractions, PGE2 by HTRF); assay type: biochemical; settings: microsomes from CHO-K1 cells transfected with human mPGES-1; PGH2 1 μM, 4° C., 60 seconds; read-out: mPGES-1 Inhibition IC50
Procedure, shortened: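 PGE2 formation read by HTRF after 60 s at 4 °C with 1 μM PGH2 substrate, following 20 min compound preincubation (1% DMSO) with human mPGES-1 microsomes from transfected CHO-K1 cells. Buffer: potassium phosphate, reduced glutathione, pH 7.4; IC50 from activity relative to enzyme-free blank.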

A549 cells = test: Inhibition of PGE2 production in A549 cell (IL-1β stimulated); assay type: cell-based, human; settings: IL-1β 5 ng/well, PGE2 in culture medium
Procedure, shortened: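 A549 cells preincubated 60 min with compound in RPMI/3% FBS (final DMSO 0.10), then stimulated with IL-1β (5 ng/well) for 24 h at 37 °C. PGE2 measured by HTRF and PGF2α by EIA in medium; IC50 from inhibition relative to stimulated minus unstimulated production.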

human mPGES-1, sequence (O14684 whole entry): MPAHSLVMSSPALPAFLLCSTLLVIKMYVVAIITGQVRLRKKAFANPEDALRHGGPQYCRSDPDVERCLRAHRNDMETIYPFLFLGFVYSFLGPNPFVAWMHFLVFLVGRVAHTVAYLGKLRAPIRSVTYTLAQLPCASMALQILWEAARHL

| SMILES | pIC50 (human mPGES-1) | pIC50 (A549 cells; Homo sapiens, A549, 24 h) | pIC50 (A549 cells; 24 hours, hydrochloride) |
| --- | --- | --- | --- |
| COCCCNc1nc2c(C(=O)Nc3cccc(Cl)c3C)cc(NC(=O)c3ccccc3C(F)(F)F)cc2[nH]1 [Example 174, N-(3-Chloro-2-methylphenyl)-2-[(3-methoxypropyl)amino]-6-({[2-(trifluoromethyl)phenyl]carbonyl}amino)-1H-benzimidazole-4-carboxamide hydrochloride] | 8.70 | 6.93 |  |
| CN(C)c1nc2c(C(=O)Nc3ccc4c(c3)CCC4)cc(NC(=O)c3ccccc3C(F)(F)F)cc2[nH]1 [Example 204, N-(2,3-Dihydro-1H-inden-5-yl)-2-(dimethylamino)-6-({[2-(trifluoromethyl)phenyl]carbonyl}amino)-1H-benzimidazole-4-carb oxamide hydrochloride] | 9.00 | 7.91 |  |
| Cc1c(Cl)cccc1NC(=O)c1cc(NC(=O)c2ccccc2C(F)(F)F)cc2[nH]c(N(CCO)CCO)nc12 [Example 144, 2-[Bis(2-hydroxyethyl)amino]-N-(3-chloro-2-methylphenyl)-6-({[2-(trifluoromethyl)phenyl]carbonyl}amino)-1H-benzimidazole-4-carboxamide hydrochloride] | 8.01 | 5.52 |  |
| CCNc1nc2c(C(=O)Nc3cccc(Cl)c3C)cc(NC(=O)c3ccccc3C(F)(F)F)cc2[nH]1 [Example 139, N-(3-Chloro-2-methylphenyl)-2-(ethylamino)-6-({[2-(trifluoromethyl)phenyl]carbonyl}amino)-1H-benzimidazole-4-carboxamide hydrochloride] | 8.72 | 7.14 |  |
| CC(=O)N1CCC[C@H]1c1nc2c(C(=O)Nc3cccc(Cl)c3C)cc(NC(=O)c3ccccc3C(F)(F)F)cc2[nH]1 [Example 73, 2-[(2S)-1-Acetylpyrrolidin-2-yl]-N-(3-chloro-2-methylphenyl)-6-({[2-(trifluoromethyl)phenyl]carbonyl}amino)-1H-benzimidazole-4-carboxamide] | 7.73 | 7.12 |  |
| Cc1c(Cl)cccc1NC(=O)c1cc(NC(=O)c2cc(Cl)ccc2Cl)cc2[nH]c(C3CCCC3)nc12 [Example 125, N-(3-Chloro-2-methylphenyl)-2-cyclopentyl-6-{[(2,5-dichlorophenyl)carbonyl]amino}-1H-benzimidazole-4-carboxamide hydrochloride] | 7.59 | 7.24 |  |
| Cc1c(Cl)cccc1NC(=O)c1cc(NC(=O)c2ccccc2C(F)(F)F)cc2[nH]c(N3CC[C@H](O)C3)nc12 [Example 150, N-(3-Chloro-2-methylphenyl)-2-[(3S)-3-hydroxypyrrolidin-1-yl]-6-({[2-(trifluoromethyl)phenyl]carbonyl}amino)-1H-benzimidazole-4-carboxamide hydrochloride] | 8.68 | 6.43 |  |
| Cc1nc2c(C(=O)NC3CCCC3)cc(NC(=O)c3ccccc3C(F)(F)F)cc2[nH]1 [Example 15, N-Cyclopentyl-2-methyl-6-({[2-(trifluoromethyl)phenyl]carbonyl}amino)-1H-benzimidazole-4-carboxamide] | 7.43 | 6.33 |  |
| Cc1c(Cl)cccc1NC(=O)c1cc(NC(=O)c2cc(Cl)ccc2Cl)cc2[nH]c(N(C)C)nc12 [Example 185, N-(3-Chloro-2-methylphenyl)-6-{[(2,5-dichlorophenyl)carbonyl]amino}-2-(dimethylamino)-1H-benzimidazole-4-carboxamide hydrochloride] | 8.35 | 8.25 |  |
| Cc1c(Cl)cccc1NC(=O)c1cc(NC(=O)c2ccccc2C(F)(F)F)cc2[nH]c(CC(=O)N(C)C)nc12 [Example 133, N-(3-Chloro-2-methylphenyl)-2-[2-(dimethylamino)-2-oxoethyl]-6-({[2-(trifluoromethyl)phenyl]carbonyl}amino)-1H-benzimidazole-4-carboxamide hydrochloride] | 8.15 | 6.31 |  |
| Cc1ccc(NC(=O)c2cc(NC(=O)c3cc(Cl)ccc3Cl)cc3[nH]c(C4CC4)nc23)cc1Cl [Example 209, N-(3-Chloro-4-methylphenyl)-2-cyclopropyl-6-{[(2,5-dichlorophenyl)carbonyl]amino}-1H-benzimidazole-4-carboxamide hydrochloride] | 9.00 | 7.99 |  |
| CCCCOc1ccc(Cl)c(C(=O)Nc2cc(C(=O)Nc3cccc(Cl)c3C)c3nc(COC)[nH]c3c2)c1 [Example 247, 6-{[(5-Butoxy-2-chlorophenyl)carbonyl]amino}-N-(3-chloro-2-methylphenyl)-2-(methoxymethyl)-1H-benzimidazole-4-carboxamide hydrochloride] | 7.16 | 7.26 |  |
| COCc1nc2c(C(=O)Nc3ccc(C)c(C)c3)cc(NC(=O)c3ccccc3C(F)(F)F)cc2[nH]1 [Example 31, N-(3,4-Dimethylphenyl)-2-(methoxymethyl)-6-({[2-(trifluoromethyl)phenyl]carbonyl}amino)-1H-benzimidazole-4-carboxamide hydrochloride] | 8.39 | 7.16 |  |
| Cc1nc2c(C(=O)NCc3ccccc3C(F)(F)F)cc(NC(=O)c3ccccc3C(F)(F)F)cc2o1 [Example 53, 2-Methyl-N-[2-(trifluoromethyl)benzyl]-6-({[2-(trifluoromethyl)phenyl]carbonyl}amino)-1,3-benzoxazole-4-carboxamide] | 6.75 | 6.55 |  |
| CCn1cnc2c(C(=O)Nc3cccc(Cl)c3C)cc(NC(=O)c3ccccc3C(F)(F)F)cc21 [Example 49, N-(3-Chloro-2-methylphenyl)-1-ethyl-6-({[2-(trifluoromethyl)phenyl]carbonyl}amino)-1H-benzimidazole-4-carboxamide] | 7.00 | 6.43 |  |
| Cc1c(Cl)cccc1NC(=O)c1cc(NC(=O)c2c(F)cccc2Cl)cc2[nH]c(NC[C@H]3CCCO3)nc12 [Example 199, 6-{[(2-Chloro-6-fluorophenyl)-carbonyl]amino}-N-(3-chloro-2-methylphenyl)-2-{[(2R)-tetrahydrofuran-2-ylmethyl]amino}-1H-benzimidazole-4-carboxamide hydrochloride] | 8.01 | 7.36 |  |
| COCc1nc2c(C(=O)Nc3cccc(Cl)c3C)cc(NC(=O)c3ccncc3Cl)cc2[nH]1 [Example 245, N-(3-Chloro-2-methylphenyl)-6-{[(3-chloropyridin-4-yl)carbonyl]amino}-2-(methoxymethyl)-1H-benzimidazole-4-carboxamide hydrochloride] | 7.59 | 6.78 |  |
| COCc1nc2c(C(=O)NCC3CCCCCC3)cc(NC(=O)c3ccccc3C(F)(F)F)cc2[nH]1 [Example 231, N-(Cycloheptylmethyl)-2-(methoxymethyl)-6-({[2-(trifluoromethyl)phenyl]carbonyl}amino)-1H-benzimidazole-4-carboxamide hydrochloride] | 8.72 | 6.82 |  |
| Cc1c(Cl)cccc1NC(=O)c1cc(NC(=O)c2ccccc2C(F)(F)F)cc2[nH]c([C@H]3CCCO3)nc12 [Example 64, N-(3-Chloro-2-methylphenyl)-2-[(2R)-tetrahydrofuran-2-yl]-6-({[2-(trifluoromethyl)phenyl]carbonyl}amino)-1H-benzimidazole-4-carboxamide hydrochloride] | 8.64 |  | 7.70 |
| Cc1c(Cl)cccc1NC(=O)c1cc(NC(=O)c2ccccc2C(F)(F)F)cc2[nH]c(C3CCCO3)nc12 (stereo in doubt) [Example 66, N-(3-Chloro-2-methylphenyl)-2-[(2S)-tetrahydrofuran-2-yl]-6-({[2-(trifluoromethyl)phenyl]carbonyl}amino)-1H-benzimidazole-4-carboxamide hydrochloride] | 8.00 |  | 7.24 |
| COCc1nc2c(C(=O)Nc3cccc(Cl)c3C)cc(NC(=O)c3cc(C)ccc3Cl)cc2[nH]1 [Example 108, N-(3-Chloro-2-methylphenyl)-6-{[(2-chloro-5-methylphenyl)carbonyl]amino}-2-(methoxymethyl)-1H-benzimidazole-4-carboxamide hydrochloride] | 7.94 | 7.06 |  |
| CCc1nc2c(C(=O)Nc3cccc(Cl)c3C)cc(NC(=O)c3ccccc3C(F)(F)F)cc2[nH]1 [Example 17, N-(3-Chloro-2-methylphenyl)-2-ethyl-6-({[2-(trifluoromethyl)phenyl]carbonyl}amino)-1H-benzimidazole-4-carboxamide] | 8.01 | 7.67 |  |
| COCc1nc2c(C(=O)Nc3cccc(Cl)c3C)cc(NC(=O)c3c(C)cccc3Cl)cc2[nH]1 [Example 104, N-(3-Chloro-2-methylphenyl)-6-{[(2-chloro-6-methylphenyl)carbonyl]amino}-2-(methoxymethyl)-1H-benzimidazole-4-carboxamide hydrochloride] | 8.54 | 7.15 |  |
| CCOc1nc2c(C(=O)Nc3cccc(Cl)c3C)cc(NC(=O)c3ccccc3C(F)(F)F)cc2[nH]1 [Example 55, N-(3-Chloro-2-methylphenyl)-2-ethoxy-6-({[2-(trifluoromethyl)phenyl]carbonyl}amino)-1H-benzimidazole-4-carboxamide] | 8.57 | 7.19 |  |
| Cc1c(Cl)cccc1NC(=O)c1cc(NC(=O)c2ccccc2C(F)(F)F)cc2[nH]c(C3CC3)nc12 [Example 83, N-(3-Chloro-2-methylphenyl)-2-cyclopropyl-6-({[2-(trifluoromethyl)phenyl]carbonyl}amino)-1H-benzimidazole-4-carboxamide hydrochloride] | 8.01 | 7.78 |  |
